Results taken from the NIST ThermoML archive (doi:10.1021/je5005752).

Assay: xn = mol fraction of the nth substance listed
Conditions: 101 kPa, Liquid; for viscosity: Falling or rolling sphere viscometry; for mass density: Vibrating tube method

CCCC(=O)OCC [ethyl butanoate] + CCCCCCO
Conditions	mass density [kg/m3]	viscosity [mPa·s]
288.15 K, x1 = 0.0997	828.32	4.176
288.15 K, x1 = 0.1998	834.25	2.965
288.15 K, x1 = 0.3002	840.39	2.214
288.15 K, x1 = 0.4	846.47	1.735
288.15 K, x1 = 0.5	852.62	1.399
288.15 K, x1 = 0.5998	858.84	1.17
288.15 K, x1 = 0.6999	865.11	0.9966
288.15 K, x1 = 0.7999	871.43	0.8726
288.15 K, x1 = 0.8998	877.77	0.7818
288.15 K, x1 = 1	884.16	0.7224
293.15 K, x1 = 0.0997	824.57	3.6
293.15 K, x1 = 0.1998	830.32	2.6
293.15 K, x1 = 0.3002	836.29	1.97
293.15 K, x1 = 0.4	842.19	1.563
293.15 K, x1 = 0.5	848.18	1.274
293.15 K, x1 = 0.5998	854.23	1.075
293.15 K, x1 = 0.6999	860.32	0.9233
293.15 K, x1 = 0.7999	866.48	0.8142
293.15 K, x1 = 0.8998	872.65	0.7339
293.15 K, x1 = 1	878.9	0.6808
298.15 K, x1 = 0.0997	820.8	3.124
298.15 K, x1 = 0.1998	826.39	2.295
298.15 K, x1 = 0.3002	832.17	1.762
298.15 K, x1 = 0.4	837.9	1.414
298.15 K, x1 = 0.5	843.72	1.166
298.15 K, x1 = 0.5998	849.59	0.991
298.15 K, x1 = 0.6999	855.52	0.857
298.15 K, x1 = 0.7999	861.51	0.761
298.15 K, x1 = 0.8998	867.52	0.6898
298.15 K, x1 = 1	873.62	0.643
303.15 K, x1 = 0.0997	817.02	2.731
303.15 K, x1 = 0.1998	822.43	2.038
303.15 K, x1 = 0.3002	828.03	1.585
303.15 K, x1 = 0.4	833.6	1.286
303.15 K, x1 = 0.5	839.24	1.069
303.15 K, x1 = 0.5998	844.95	0.9185
303.15 K, x1 = 0.6999	850.71	0.7979
303.15 K, x1 = 0.7999	856.53	0.7129
303.15 K, x1 = 0.8998	862.38	0.6492
303.15 K, x1 = 1	868.33	0.6072
308.15 K, x1 = 0.0997	813.22	2.403
308.15 K, x1 = 0.1998	818.46	1.819
308.15 K, x1 = 0.3002	823.88	1.433
308.15 K, x1 = 0.4	829.27	1.174
308.15 K, x1 = 0.5	834.75	0.9852
308.15 K, x1 = 0.5998	840.28	0.8501
308.15 K, x1 = 0.6999	845.88	0.7452
308.15 K, x1 = 0.7999	851.54	0.6686
308.15 K, x1 = 0.8998	857.23	0.6113
308.15 K, x1 = 1	863.02	0.5736
313.15 K, x1 = 0.0997	809.4	2.124
313.15 K, x1 = 0.1998	814.46	1.631
313.15 K, x1 = 0.3002	819.7	1.3
313.15 K, x1 = 0.4	824.92	1.076
313.15 K, x1 = 0.5	830.23	0.9099
313.15 K, x1 = 0.5998	835.6	0.7898
313.15 K, x1 = 0.6999	841.02	0.6964
313.15 K, x1 = 0.7999	846.52	0.6277
313.15 K, x1 = 0.8998	852.06	0.5762
313.15 K, x1 = 1	857.7	0.5425
318.15 K, x1 = 0.0997	805.54	1.887
318.15 K, x1 = 0.1998	810.43	1.469
318.15 K, x1 = 0.3002	815.5	1.184
318.15 K, x1 = 0.4	820.55	0.9878
318.15 K, x1 = 0.5	825.69	0.8422
318.15 K, x1 = 0.5998	830.89	0.7355
318.15 K, x1 = 0.6999	836.15	0.652
318.15 K, x1 = 0.7999	841.48	0.5903
318.15 K, x1 = 0.8998	846.86	0.544
318.15 K, x1 = 1	852.36	0.5132
323.15 K, x1 = 0.0997	801.66	1.7
323.15 K, x1 = 0.1998	806.38	1.332
323.15 K, x1 = 0.3002	811.27	1.089
323.15 K, x1 = 0.4	816.15	0.9186
323.15 K, x1 = 0.5	821.13	0.788
323.15 K, x1 = 0.5998	826.16	0.6919
323.15 K, x1 = 0.6999	831.25	0.6147
323.15 K, x1 = 0.7999	836.43	0.5594
323.15 K, x1 = 0.8998	841.64	0.5176
323.15 K, x1 = 1	847	0.487
